Measured values published in patent publication US12152240B2, “Permanent epigenetic gene silencing” (Ospedale San Raffaele S.R.L., priority 2014, dated 2024).

Experiments:
Assay type in all cases: cell-based, human
[1] = tested on: B2M gene promoter region, HEK-293T cells; test: B2M silencing in HEK-293T cells (flow cytometry); settings: day 7 upon AZA treatment
Excerpt: In order to assess if the results obtained with the eGFP reporter system could also be translated to an endogenous gene embedded in its natural epigenetic context, we generated custom-made TALEs targeting the promoter region of the B2-Microglobulin (B2M) gene (the amino acid sequences of these TALEs and the nucleotide sequences of their corresponding binding sites are listed in Table 3), and fused these TALEs to the KRAB, DNMT3A and DNMT3L effector domains (for a schematic of the system refer to FIG. 13A). The spacer length between the first and the second, or between the second and the third TALE is 1 or 20 bp, respectively. We then co-transfected HEK-293T cells with the plasmids encoding for these novel ATRs and analysed the cells by flow cytometry for B2M expression.
Remarkably, up to 80% of the cells treated with all the ATRs permanently lost B2M surface expression. In parallel experiments, we sorted the B2M-negative and the B2M-positive cells, and analysed them for surface expression of MHC-I molecules, which require B2M to be presented on the plasma membrane. […] Then we assessed if the three effector domains were capable of inducing permanent epigenetic silencing also when targeted to the B2M gene via the RNA-guided CRISPR/Cas9 system. […]
We then assessed if these findings also held true with ATRs based on custom-made DNA binding domains. […]

[2] = tested on: eGFP-negative (silenced) AAVS1/TetO7 cells; test: 5-Aza treatment of eGFP-silenced AAVS1/TetO7 cells (flow cytometry); settings: 7 days
Experimental: In order to understand if DNA methylation was necessary to maintain the repressive state induced by tetR:D3A, the eGFP-cells from the doxy-conditions in FIG. 2D were treated with either 5-Aza-2′-deoxycytidine (5-Aza) or vehicle (i.e. Dimethyl Sulfoxide, DMSO) and then analysed by flow cytometry to measure eGFP expression. 5-Aza is a cytosine analogue that after becoming incorporated into DNA is recognised by DNA methyltransferase as a substrate, establishing a covalent bond that, contrary to cytosine, is not resolved, thus blocking DNMT activity (Issa, J. P. et al. (2005) Nat. Rev. Drug Discov. Suppl. S6-7).
To test activity of the ATRs, the reporter cell lines were transduced with the ATR-expressing Bid.LV at a MOI of 10, or transfected with plasmids or in vitro transcribed mRNAs expressing the ATRs (4D-Nucleofector™ System; Lonza) according to the manufacturer's instruction for K-562, U937 and NIH/3T3, or using the pulse program EW-113 and the SF solution for B-lymphoblastoid cells. […] The AZA-containing media was replaced every day, and the cells were analysed by flow cytometry at day 4 and 7 after treatment. […] The IFN-γ-containing media was replaced every day, and the cells were analysed by flow cytometry at day 2 and 4 after treatment. […] Two weeks after plating, colonies were counted and identified according to morphological criteria and analysed by flow cytometry.

B2M gene, HEK-293T cells = test: B2M, OAS1 and B2M locus gene expression in HEK-293T cells (RT-qPCR)
Excerpt: Remarkably, up to 80% of the cells treated with all the ATRs permanently lost B2M surface expression. In parallel experiments, we sorted the B2M-negative and the B2M-positive cells, and analysed them for surface expression of MHC-I molecules, which require B2M to be presented on the plasma membrane. […] Then we assessed if the three effector domains were capable of inducing permanent epigenetic silencing also when targeted to the B2M gene via the RNA-guided CRISPR/Cas9 system. To this aim, we fused in frame to a catalytically dead Cas9 (D10A+H840A; dCas9; amino acid sequence listed in Table 4) the KRAB, the DNMT3A or the DNMT3L effector domains (FIG. 13E; top drawings), and designed 11 guide RNAs (gRNAs; nucleotide sequences listed in Table 4) targeting the promoter region of the B2M gene (FIG. 13E; bottom schematic, arrows indicate the location of the CRISPR/dCas9 target sites). […] We then assessed if B2M silencing was resistant to IFN-γ treatment, a potent inducer of B2M expression (Vraetz, T. et al. (1999) Nephrol. Dial. Transplant. 14:2137-43; Gobin, S. J. et al. (2003) Blood 101:3058-64). […]
In order to assess if silencing induced by our ATRs was associated with the deposition of repressive epigenetic marks on the targeted gene, we analysed the epigenetic state of the B2M gene in wild-type and silenced cells. […]

Compound	B2M expression after AZA treatment of previously silenced cells [1]	eGFP expression after 5-Aza treatment ([2]; eGFP- cells silenced with tetR:D3A, 1 μM)	eGFP expression after 5-Aza treatment ([2]; eGFP-negative sorted cells from tetR:K/tetR:D3A conditions)	B2M expression upon IFN-γ treatment (transcriptional and protein level) (B2M gene, HEK-293T cells; 500 U/mL IFN-γ, wild-type or sorted B2M-negative cells)	upregulation of OAS1 gene expression (B2M gene, HEK-293T cells; IFN-γ treatment, all cell types tested (wild-type and B2M-negative))
Nc1ncn([C@H]2C[C@H](O)[C@@H](CO)O2)c(=O)n1 [5-Aza, 5-Aza-2′-deoxycytidine]	re-expression of the B2M gene	full reactivation of eGFP expression	completely reactivated eGFP expression	–	–
IFN-γ: a potent inducer of B2M expression	–	–	–	significantly upregulated B2M expression	> 100 fold
